According to publication PMC10222464, “Pharmacokinetic Study and Metabolite Identification of CAM106 in Rats by Validated UHPLC-MS/MS” (Pharmaceuticals, 2023):
“Also recorded” adds a separate entry of the source. Read-outs that look alike come from different tables or passages of the source.

Tests used:
[1] = in vivo
influenza virus B [2] = details: cited from earlier work
rats = experiment: Observation of toxicity / adverse reactions in rats after dosing; assay type: in vivo, Sprague Dawley (SD) rats
H3N2 = tested on: H3N2; parameters: method as in PMID 22625417; details: read-out: IC50 for H3N2 virus; cited from earlier work
Water solubility = assay type: physicochemical
[3] = Stability of CAM106 QC samples (rat plasma, stock solution) under different conditions; assay type: physicochemical; details: for Accuracy, autosampler stability 0 h / Accuracy, autosampler stability 4 h / Accuracy, autosampler stability 8 h / Accuracy, autosampler stability 12 h: autosampler 10 °C; for Accuracy, room temperature: room temperature 12 h; for Accuracy, stock solution 15 days: stock solution 15 days at −20 °C; for Accuracy, thaw: three freeze–thaw cycles; for Accuracy, long-term stability 1 day / Accuracy, long-term stability 7 days: −80 °C
Experimental: Three quality control (QC) concentrations of CAM106 were used for stability testing under five conditions: in the autosampler for 0, 4, 8, and 12 h; long-term stability at −80 °C for 1 and 7 days; stock solution for 15 days at −20 °C; at room temperature for 12 h; and three freeze–thaw cycles.
The stability tests were conducted with rat plasma containing CAM106 through the analysis of 3 replicates at 10.64, 106.38, and 638.30 ng/mL. This typically comprises short-term stability (room temperature), long-term stability (−80 °C), post-preparation stability (autosampler, 10 °C), and freeze–thaw cycle stability (room temper and −80 °C).

[4] = Metabolite identification in rat plasma, urine and feces by high-resolution mass spectrometry; details: √ found, × not found
[5] = Pharmacokinetic study in rats after oral and intravenous administration (UHPLC-MS/MS, non-compartment analysis); assay type: in vivo, Sprague Dawley (SD) rats; details: for MRT inf: read-out: MRT0–inf; for MRT last: read-out: MRT0–t
Experimental: By using the UHPLC–MS/MS method, we successfully performed accurate quantification of CAM106 in rat plasma, and a non-compartment analysis was used to characterize the pharmacokinetic profiles of CAM106. […] After intravenous administration, T1/2 and Vd were 1.34 ± 0.64 h and 16624.89 ± 8171.11 mL/kg, respectively. […] The mean retention times after oral and intravenous administration were 3.42 ± 0.73 h and 0.63 ± 0.17 h, respectively.
All twelve male Sprague Dawley (SD) rats (weight 200 ± 20 g) were purchased from Xinjiang Medical University (Xinjiang, China). […] For the pharmacokinetic study, twelve rats were randomized into two groups (n = 6). The rats were fasted overnight before the experiment but had free access to water. […] For the oral administration group, CAM106 was intragastrically administered to the rats at a dose of 180 mg/kg. Approximately 0.2 mL of blood was drawn from the ophthalmic veins at 0, 0.25, 0.5, 0.75, 1, 1.5, 2, 4, and 10 h. For intravenous administration, CAM106 was injected into the tail at a dose of 18 mg/kg. About 0.2 mL of blood (from the ophthalmic veins) was drawn at 0, 0.25, 0.5, 0.75, 1, 1.5, 2, 4, and 6 h. After that, 1.5 mL polyethylene tubes containing EDTA were used to collect the plasma. The blood samples were centrifuged at 19,800× g for 7 min after which the supernatant was collected and stored at −80 °C for further analysis.
A 10 µL volume of methanol was added to 100 µL of each plasma sample and vortexed for 3 s (3000 rpm). Then, the mixtures were vortexed for three seconds while receiving 10 µL of internal standard (3000 rpm). A volume of 350 µL acetonitrile was added to 100 µL of each plasma sample. The mixtures were vortexed for 1 min and centrifuged for 7 min at 19800 g. A 100 µL aliquot of the supernatant was stored and 5 µL was subjected to UHPLC–MS/MS analysis.
For the pharmacokinetic study, the chromatographic separation was carried out on an Acquity UHPLC BEH C18 column (2.1 × 75 mm, 1.7 µm) with a filter. The column oven was set at 35 °C. The mobile phase aqueous solution (A, containing 0.1% formic acid) and acetonitrile (B) worked within 0–3.5 min with 60% B. The injection volume was set at 5 µL, with a flow rate of 0.2 mL/min. By using the parallel reaction monitoring (PRM) mode, the CAM106 and internal standard were found. The following adjustments were made to the electrospray ionization (ESI) source parameters: high collision dissociation cell (HCD) energy, 27 eV (for CAM106) and 42 eV (for the IS); capillary temperature, 320 °C; S-lens RF level, 55 V; automatic gain control (AGC) target, 1e^6; maximum IT, 100 ms; spray voltage, 3.2 kV.

influenza virus B [6] = experiment: Anti-influenza activity (IC50) against influenza virus B; assay type: cell-based; details: CAM106 versus rupestonic acid
Kun Ming mice = tested on: Kun Ming mice; parameters: method as in earlier work; details: 25 mg/kg; cited from earlier work
H1N1 = tested on: H1N1; parameters: method as in PMID 22625417; details: read-out: IC50 for H1N1 virus; cited from earlier work
[7] = IV 18.0 mg/kg, n = 6, mean ± SD
[8] = PO 180.0 mg/kg, n = 6, mean ± SD
[9] = male, Sprague Dawley, rat, plasma, IV 18.0 mg/kg, n = 6, mean ± SD
[10] = male, Sprague Dawley, rat, plasma, PO 180.0 mg/kg, n = 6, mean ± SD

## C=C(C(=O)NCC1=CC(c2ccc(F)cc2)NO1)C1CCC(C)C2CC(=O)C(C)=C2C1 (stereo not drawn) [M8]
[1]
  Detected in rat feces (F): √
  Detected in rat urine (U): ×

## C=C(C(=O)O)[C@H]1CC[C@H](C)[C@@H]2CC(=O)C(C)=C2C1 [rupestonic acid, reference compound]
Influenza virus B [2]; read-out: IC50 for virus B
  IC50: 116000 nM

## C=C(C(=O)NCc1cc(-c2ccc(F)cc2)no1)C1CCC(C)C2CC(=O)C(C)=C2C1 (stereo not drawn) [CAM106]
rats; 180 mg/kg oral and 18 mg/kg intravenous for 3 days
  Signs of toxicity: no signs of toxicity were observed
rats; oral 180 mg/kg or intravenous 18 mg/kg
  Adverse reactions or acute toxicity: No adverse reactions or acute toxicity were observed
H3N2
  IC50: 1090 nM
Water solubility
  Solubility in water: poorly soluble in water; also recorded: weak water solubility
[3]; 10.64 ng/mL
  Accuracy, autosampler stability 0 h: 95.02
  Accuracy, autosampler stability 4 h: 93.52
  Accuracy, autosampler stability 8 h: 91.35
  Accuracy, autosampler stability 12 h: 100.38
  Accuracy, room temperature: 96.71
  Accuracy, stock solution 15 days: 91.26
  Accuracy, thaw: 97.21
  Accuracy, long-term stability 1 day: 97.93
  Accuracy, long-term stability 7 days: 103.20
[3]; 106.38 ng/mL
  Accuracy, autosampler stability 0 h: 106.05
  Accuracy, autosampler stability 4 h: 101.96
  Accuracy, autosampler stability 8 h: 101.46
  Accuracy, autosampler stability 12 h: 98.88
  Accuracy, room temperature: 101.12
  Accuracy, stock solution 15 days: 108.39
  Accuracy, thaw: 106.13
  Accuracy, long-term stability 1 day: 104.02
  Accuracy, long-term stability 7 days: 94.03
[3]; 638.30 ng/mL
  Accuracy, autosampler stability 0 h: 100.00
  Accuracy, autosampler stability 4 h: 102.58
  Accuracy, autosampler stability 8 h: 97.09
  Accuracy, autosampler stability 12 h: 96.48
  Accuracy, room temperature: 102.21
  Accuracy, stock solution 15 days: 95.27
  Accuracy, thaw: 100.09
  Accuracy, long-term stability 1 day: 103.73
  Accuracy, long-term stability 7 days: 90.36
[4]; rat feces 0–48 h after administration of CAM106
  Detected in rat feces (F): √
[4]; rat urine 0–48 h after administration of CAM106
  Detected in rat urine (U): √
Influenza virus B [2]; read-out: IC50 for B virus
  IC50: 3250 nM
[5]; [7]
  AUC0–inf: 1287.93 ± 549.25 h·(ng/mL)
  AUC0–t: 1255.32 ± 544.72 h·(ng/mL)
[5]; [8]
  AUC0–inf: 294.19 ± 221.69 h·(ng/mL)
  AUC0–t: 200.94 ± 87.45 h·(ng/mL)
  Vd: 4,605,807.05 ± 2,044,928.13 mL/kg
[5]; [9]
  clearance: 277 mL/min/kg
  half-life: 1.34 ± 0.64 h
  MRT inf: 0.79 ± 0.23 h
  MRT last: 0.63 ± 0.17 h
[5]; male, Sprague Dawley, rat, plasma, IV 18.0 mg/kg, n = 6, mean ± SD, read-out: Vd
  Vd: 27.4 L/kg
[5]; [10]
  Cmax: 61 ± 30.8 ng/mL
  Tmax: 1.21 ± 0.51 h
  half-life: 4.56 ± 2.31 h
  MRT inf: 6.69 ± 3.57 h
  MRT last: 3.42 ± 0.73 h
[5]; male, Sprague Dawley, rat, plasma, oral, 180 mg/kg, PO 180.0 mg/kg versus IV 18.0 mg/kg, read-out: F (%), absolute (oral) bioavailability
  bioavailability: ~1.6%
[5]; male, Sprague-Dawley, rat, plasma, IV 18.0 mg/kg, n = 6, mean ± SD
  Cmax: 2310 ± 1000 ng/mL
Influenza virus B [6]
  IC50 against influenza virus B relative to rupestonic acid: about 35 fold
Kun Ming mice
  Toxic response: no toxic response
H1N1
  IC50: 970 nM

## C=C(C(N)=O)C1CCC(C)C2CC(=O)C(C)=C2C1 (stereo not drawn) [M1]
[1]
  Detected in rat feces (F): √
  Detected in rat urine (U): √

## C=C(C(=O)NCc1cc(-c2ccc(F)cc2)no1)C1CC[C@H](C(=O)O)C2CC(=O)C(C)=C2C1 (stereo partly drawn) [M5]
[1]
  Detected in rat feces (F): ×
  Detected in rat urine (U): √

## C=C(C(=O)N(C)C)C1CCC(C)C2CC(=O)C(C)=C2C1 (stereo not drawn) [M4]
[1]
  Detected in rat feces (F): √
  Detected in rat urine (U): ×
